Several values for one entry are separate records, joined by “and”; a condition that tells them apart may be missing. Equal entries are not always repeated.
Key:
[1] = system: volunteers with a history of skin sensitivity to Balsam of Peru; assay: in vivo skin anti-irritancy test, Balsam of Peru challenge, redness by Minolta chromameter (Example 2); conditions: for % Decrease In Redness: 20 min before Balsam of Peru, 7 volunteers; for preventing irritation caused by a topical irritant (in words): Balsam of Peru challenge, 0.1%
Excerpt: The following in vivo assay illustrates the effectiveness of sialyl oligosaccharide derivatives, 3'- and 6'-sialyl lactose, in preventing skin irritation. The in vivo assays used to assess efficacy of topical anti-irritants are known to those skilled in the art, examples of such assays may be found in Muizzuddin et al., 1990, J. Soc. Cosmet. Chem. 41:369-378, and Lubach et al. in Topical Corticoids, Maibach & Surber (eds.) Basel, Karger, 1992, pp. 26-41, both of which are incorporated herein by reference in their entirety. The skin anti-irritancy effects of 3'- and 6'- sialyl lactose were tested on 7 volunteers with a history of skin sensitivity to Balsam of Peru. The test compounds were applied to the ventral forearms of the panelists. The material was allowed to absorb for twenty minutes and then Balsam of Peru, an irritant, was applied to the test sites. Skin irritation was measured in terms of increase in skin redness.
The degree of redness was measured with the Minolta chromameter and compared with the positive and negative controls. The positive control was the color of skin treated with Balsam of Peru alone and the negative control was the skin treated with cola material challenged like the test material.

PMN-endothelial cells = assay: in vitro inhibition of adhesion of activated neutrophils to endothelial cells; assay type: cell-based; conditions: for % Inhibition of Adhesion: neutrophils activated with interleukin-1 or TPA
Procedure: The following in vitro assay illustrates the effectiveness of the sialyl oligosaccharide derivative, 3' sialyl lactose, in inhibiting the adhesion of cells that express SLeX on their surfaces to cells expressing a selectin receptor. The ability of 3'-sialyl lactose to inhibit cell adhesion was tested using an in vitro assay system. Neutrophils were activated with either interleukin-1 or phorbol ester, TPA, to induce expression of selections and binding to endothelial cells. The activated neutrophils were treated with either 3'-sialyl lactose at 0.01 and 0.02%, sucrose at 4% or a positive control, and then assayed for their ability to bind to PMN-endothelial cells.

[2] = system: volunteers with a history of skin sensitivity to Balsam of Peru; assay: in vivo skin anti-irritancy test, Balsam of Peru challenge, redness by Minolta chromameter (Example 3); conditions: 0.1% topical on ventral forearm, 20 min before Balsam of Peru, 7 volunteers
Procedure: The following in vivo assay illustrates the effectiveness of 3'-sialyl oligosaccharide derivatives in preventing skin irritation. The skin anti-irritancy effects of various derivatives of 3'-sialyl lactose were tested on 7 volunteers with a history of skin sensitivity to Balsam of Peru. The test compounds benzyl sialyl lactose and ethyl sialyl lactose were applied to the ventral forearms of the panelists. The material was allowed to absorb for twenty minutes and then Balsam of Peru, an irritant, was applied on the test sites. Skin irritation was measured in terms of increase in skin redness. The degree of redness was measured with the Minolta chromameter and compared with the positive and negative controls. The positive control was the color of skin treated with Balsam of Peru alone and the negative control was the skin treated with cola material challenged like the test material.

[3] = 0.1% topical on ventral forearm

## CC(=O)N[C@H]1[C@H]([C@H](O)[C@H](O)CO)O[C@@](O[C@H]2[C@@H](O)[C@@H](CO)O[C@@H](O[C@H]3[C@H](O)[C@@H](O)C(O)O[C@@H]3CO)[C@@H]2O)(C(=O)O)C[C@@H]1O (some centres unmarked) [3'-Sialyl lactose, 3'-N acetylneuraminyl-lactose]
[1]; [3]
  % Decrease In Redness: 69% and 67%
[1]
  preventing irritation caused by a topical irritant (in words): significant activity
PMN-endothelial cells; 0.02%, IL-1 induced neutrophils
  inhibiting the adhesion of cells that express SLeX to cells expressing a selectin receptor (in words): very effective
PMN-endothelial cells; test compound at 0.01%
  % Inhibition of Adhesion: 39%
PMN-endothelial cells; test compound at 0.02%
  % Inhibition of Adhesion: 61%

## CC(=O)N[C@H]1[C@H]([C@H](O)[C@H](O)CO)O[C@@](OC[C@H]2O[C@@H](O[C@H]3[C@H](O)[C@@H](O)[C@H](O)O[C@@H]3CO)[C@H](O)[C@@H](O)[C@H]2O)(C(=O)O)C[C@@H]1O [6'-Sialyl lactose, 6'-sialyl lactose]
[1]; [3]
  % Decrease In Redness: 57%
[1]
  preventing irritation caused by a topical irritant (in words): significant activity

## C[C@]12CCC(=O)C=C1CC[C@@H]1[C@@H]2[C@@H](O)C[C@@]2(C)[C@H]1CC[C@]2(O)C(=O)CO [Hydrocortisone, reference compound]
[1]; 0.5% topical on ventral forearm
  % Decrease In Redness: 66%

## OC[C@H]1O[C@@H](O[C@H]2[C@H](O)[C@@H](O)C(O)O[C@@H]2CO)[C@H](O)[C@@H](O)[C@H]1O (some centres unmarked) [Lactose, reference compound]
[1]; [3]
  % Decrease In Redness: 45%
[1]
  preventing irritation caused by a topical irritant (in words): ineffective

## CC(=O)N[C@H]1[C@H]([C@H](O)[C@H](O)CO)OC(O)(C(=O)O)C[C@@H]1O (some centres unmarked) [Sialic Acid, reference compound]
[1]; [3]
  % Decrease In Redness: 31%

## CC(=O)N[C@H]1[C@H]([C@H](O)[C@H](O)CO)O[C@@](O[C@H]2[C@@H](O)[C@@H](CO)O[C@@H](O[C@H]3[C@H](O[C@@H]4O[C@@H](C)[C@@H](O)[C@@H](O)[C@@H]4O)[C@@H](NC(C)=O)C(O)O[C@@H]3CO)[C@@H]2O)(C(=O)O)C[C@@H]1O (some centres unmarked) [Sialyl Lewis X, NeuAcα2-3βGalβ1-4(Fucα1-3)GlcNAc, reference compound]
[1]; [3]
  % Decrease In Redness: 66%

## OC[C@H]1O[C@@](CO)(O[C@H]2O[C@H](CO)[C@@H](O)[C@H](O)[C@H]2O)[C@@H](O)[C@@H]1O [Sucrose, reference compound]
PMN-endothelial cells; test compound at 4.0%
  % Inhibition of Adhesion: 40%

## benzyl sialyl lactose
[2]
  % Decrease In Redness: 42.47%
[2]; listed as benzyl sialyl lactose
  % Decrease In Redness: 42.47%

## ethyl sialyl lactose
[2]
  % Decrease In Redness: 40.6%
[2]; listed as lactose ethyl
  % Decrease In Redness: 40.6%

From patent EP1032364B1, “TOPICAL COMPOSITIONS CONTAINING SIALYL SUGARS AND THEIR DERIVATIVES” (E-L Management Corp., priority 1998, dated 2000)
